For data set [1], the system named is S. aureus. Briefly: Reichardt's dye coatings from different solvents on towels, S. aureus aliquots. The conditions noted are these: for color change of coating: 100 μl S. aureus. On the procedure: The behavior of Reichardt's dye coatings made using various different solvents was evaluated. Solutions of Reichardt's dye in acetonitrile, isopropanol, and xylenes were prepared and the solutions were used to coat SCOTT® kitchen rolls towels and allowed to air-dry.

The test system of data set [2] is aged chicken juice known to have a high bacterial count. Briefly: Dye coating on ceramic surface with and without TWEEN 80, drop of aged chicken juice. The conditions noted are these: 80 mg/10 mL acetonitrile with TWEEN 80 (200 μL). On the procedure:
A solution of Reichardt's dye (80 mg/10 mL acetonitrile) and TWEEN® 80 (200 μL) polyoxyethylene surfactant (from Fischer Scientific, Pittsburgh, Pa.) was prepared. This solution was then used to coat a ceramic surface and allowed to air dry. A second solution of Reichardt's dye (80 mg/10 mL acetonitrile) without surfactant was placed on the surface and allowed to air dry as well. After drying, a drop of aged chicken juice known to have a high bacterial count was placed on each coating area. […] Furthermore, the addition of TWEEN® surfactant allowed for easy removal of the dye from the surface.

Another data set concerns E. coli bacteria. Description: Reichardt's dye/TMB coated towel, E. coli suspension drop-wise. Conditions: coating of Reichardt's dye and TMB on SCOTT paper towel. From the text: Additionally, a SCOTT® paper towel having a coating of Reichardt's dye and TMB chemistries was exposed to suspension of E. coli bacteria drop-wise. The towel area that came in contact with the bacteria decolorized to a white spot in less than 10 seconds.

For another data set, the system named is S. aureus (ATCC #6538). Description: Reichardt's dye coated paper, response to bacterial contamination. The conditions noted are these: paper brush-coated with 80 mg/10 mL acetonitrile; 100 μL aliquots of 10^7 to 10^4 CFU/mL. The method, then: (§1) This experiment illustrated the ability of a surface coating of Reichardt's dye to respond to bacterial contamination. A sheet of paper was brush-coated with a Reichardt's dye solution (80 mg/10 mL acetonitrile). To this paper was added 100 μL aliquots of 10^7, 10^6, 10^5, and 10^4CFU/mL E. coli (ATCC #8739) or S. aureus (ATCC #6538) solutions. Water was used as a negative control. The dye color was rapidly discharged when contaminated by both types of bacteria, but more rapidly for the S. aureus. It was later determined that while both bacteria solutions were indeed at 10^7 CFU/mL concentrations, the actual concentration of the S. aureus solution was 7×10^7 CFU/mL compared to 1×10^7 CFU/mL for the E. coli solution.

A further data set has as its system E. coli (ATCC #8739). Described as above. Conditions: paper brush-coated with 80 mg/10 mL acetonitrile; 100 μL aliquots of 10^7 to 10^4 CFU/mL. On the procedure:
as §1

A short description of data set [3]: Reichardt's dye/TMB coated towel, dilute bleach solution. Conditions: mixture of Reichardt's dye and TMB on SCOTT paper towel. The class given is physicochemical. The text has this:
A mixture of Reichardt's dye and 3,3′,5,5′-tetramethylbenzidine (TMB) was coated onto a SCOTT® paper towel and allowed to air-dry.

Data set [4] concerns S. aureus. Briefly: Reichardt's dye coated self-adhesive stickers, transfer of bacteria by gloved hand. The conditions noted are these: 160 mg/10 mL and 80 mg/10 mL acetonitrile coatings; 10^7 CFU/mL S. aureus. The method, then: A sheet of paper self-adhesive stickers (Avery-Dennison) was also brush-coated with two different concentrations of Reichardt's dye solution (160 mg/10 mL acetonitrile, 80 mg/10 mL acetonitrile). The stickers were applied to the lid and latch mechanism of a Huggies® Wet Wipes box. A gloved hand was used to transfer 10^7 CFU/mL S. aureus to the surface of the stickers.

A short description of data set [5]: De-colorization by acid (model of microbial contamination) and reversal by strong base. The class given is physicochemical. On the procedure: A CCI Multigloss yellow base pigment (available from Color Converting, Inc. of Hazleton, Pa.) was applied to a white SMS (spunbond/meltblown/spunbond) nonwoven material (available from Kimberly-Clark Corporation of Irving, Tex.) using a standard hand roller. The treated nonwoven was oven-dried at 100° C. for approximately five minutes. A solution of Reichardt's dye was prepared by mixing about 200 mg of Reichardt's dye (obtained from Sigma-Aldrich of St. Louis, Mo.) with approximately 5 g of octanol (obtained from Sigma-Aldrich). This solution was then applied in the shape of a “t” to the dried yellow pigment on the nonwoven material using a clean hand roller. A control material was prepared by applying the Reichardt's dye/octanol mixture in the “t” pattern to a sheet of untreated white SMS nonwoven material. The samples were again oven-dried at 100° C. for approximately five minutes. In previous studies, it has been discovered that strong acids can also cause de-colorization of the dye in a manner that is representative of microbial contamination. Thus, strong acids are sometimes used to model the reaction of a microbe for initial experiments. A drop of pH 2 Aldrich buffer was applied to both the control and test substrates in three places and allowed to react for three minutes. […] An observation was made that the yellow color became even more visible as time passed (presumably due to the complete de-colorization of all dye molecules in the area of the drop as the acid dried).
This experiment illustrated the ability of a strong base to reverse decolorization of Reichardt's dye. Several drops of Reichardt's dye (160 mg in 10 ml of acetonitrile) were pipetted onto a SCOTT® towel and allowed to dry. […] The blue/purple color of Reichardt's dye returned after the 1 N NaOH was added.

Data set [6] concerns bacteria and other microbes in aged urine. Briefly: Merocyanine dye coated paper towel, aged female human urine. On the procedure: Female human urine was collected and stored in a glass jar at room temperature for 8 days. N-methyl merocyanine dye of the structure below was synthesized as described above. A 0.5-g quantity of the dye was dissolved in 20 ml deionized water and coated onto a SCOTT® kitchen roll paper towel by dipping the towel into the solution, allowing the excess to drip off, and then allowing the coated toweling to dry at ambient conditions. The paper towel was stained a deep orange color by the dye.
As a control, the aged urine was filtered through a 0.2 micron filter to remove bacteria and other microbes.
Female human urine was collected and stored for 24 hours at 37° C. Pooled female urine may be expected to have a bacterial loading of approximately 1×10^5 CFU/ml after storage under these conditions. A 0.5-g quantity of N-methyl merocyanine dye, synthesized as described above, was dissolved in 20 ml deionized water and coated onto a SCOTT® kitchen roll paper towel by dipping the towel into the solution, allowing the excess to drip off, and then allowing the coated toweling to dry at ambient conditions. The paper towel was stained a deep orange color by the dye.

For data set [7], the system named is budgie feces suspension in tap water. Briefly: Merocyanine dye coated paper towel, budgerigar feces suspension. The conditions noted are these: coated SCOTT towel, drops of suspension. The method, then: Budgerigar feces was collected from a caged pet budgie, and shaken in approximately 10 ml of Atlanta city domestic tap water. A 0.5-g quantity of N-methyl merocyanine dye, synthesized as described above, was dissolved in 20 ml deionized water and coated onto a SCOTT® kitchen roll paper towel by dipping the towel into the solution, allowing the excess to drip off, and then allowing the coated toweling to dry at ambient conditions. The paper towel was stained a deep orange color by the dye. […] As a control, Atlanta city domestic tap water was dropped onto a different area of the towel and while the color was diluted somewhat by the water, the area remained orange.

Another data set has as its system microbe contamination. Description: Microbe-insensitivity of signal graphic colorants.
The subject of a further data set is aged chicken juice. Description: Dye spots on woven cotton fabric, aged chicken juice. From the text: A transparent film covering half of a fresh chicken on a polystyrene tray (from supermarket) was stored at room temperature for three weeks. The pale yellow juices that collected in the polystyrene tray were collected using a pipette and used for tests.
A 47-mg quantity of 1-docosyl-4-(4-hydroxystyryl)-pyridinium bromide (from Aldrich Chemical) was mixed with 10 g dimethylformamide. A small amount of solids remained after shaking and settling. The orange supernatant fluid was dropped onto woven cotton fabric of basis weight (29.2 cm×20.3 cm=6.888 g) to make orange-yellow colored circles. One drop of 1N sodium hydroxide solution was added to one orange-yellow spot on the cotton fabric, changing the color from orange-yellow to a pinkish orange.
The color change was rapid on cotton.

In the case of `[O-]c1c(-c2ccccc2)cc(-[n+]2c(-c3ccccc3)cc(-c3ccccc3)cc2-c2ccccc2)cc1-c1ccccc1` [Reichardt's dye, 4-(2,4,6-triphenylpyridinium-1-yl)-2,6-diphenylphenolate], the “color change of coating” value in the data set on S. aureus [1] (acetonitrile solution-based coating) is “rapid de-colorization”; in the data set with S. aureus [1] (isopropanol solution-based coating), “No visible color change”; in the data set with S. aureus [1] (xylenes solution-based coating), “No visible color change”. Also, the “decolorization in response to microbial contamination” value in the data set on S. aureus [1] (isopropanol as solvent, dye concentration adjusted) was “readily and easily observed”. Also, the “de-colorization faster than area without TWEEN surfactant” value in data set [2] lay within 20 to 30 s. In addition, the “time to decolorize to a white spot” value in the data set with E. coli bacteria is listed as “less than 10 seconds”. The time of de-colorization with S. aureus (ATCC #6538) and in the data set with E. coli (ATCC #8739) was < 1 min throughout. In data set [3], the “color response to bleach” value is “de-colorizing”. Besides, the “color discharge of coated stickers” value in the data set on S. aureus [4] is recorded as “rapidly de-colorized”. In addition, the “color change on acid” value in data set [5] (160 mg in 10 ml acetonitrile on SCOTT towel, acetic acid and Aldrich buffer pH 2.0) is “rapid de-colorization”. Further, the “reversal of decolorization by base” value in [5] (drop of 1 N NaOH on acid-decolorized spots) was “rapid re-colorization”. For the same compound, the “de-colorization revealing underlying pigment” value in [5] (drop of pH 2 Aldrich buffer on SMS nonwoven over yellow pigment, three minutes) is reported as “underlying yellow color was clearly visible”.
For the compound `COc1cc(/C=C/c2cc[n+](C)cc2)ccc1[O-]` [N-methyl merocyanine dye], the color change entry is “immediate color change from deep orange to pale yellow” in data set [6] (urine stored 24 hours at 37° C., approx. 1×10^5 CFU/ml expected); “did not cause a color change” in data set [6] (urine stored 24 hours at 37° C., filtered through 0.2 micron filter (control)); “did not cause a color change” in data set [6] (urine stored 8 days, filtered through 0.2 micron filter (control)); “immediate color change from deep orange to pale yellow” in [6] (urine stored at room temperature for 8 days); “immediate color change from deep orange to pale yellow” in [7].
As to `Cc1cc(-c2cc(C)c(N)c(C)c2)cc(C)c1N` [TMB, 3,3′,5,5′-tetramethylbenzidine], the “bleach indicator color development on bacteria” value with E. coli bacteria is reported as “No orange/yellow color was observed to develop”. The “color response to bleach” value in [3] is “turning orange/yellow color”.
As to `Cc1ccc(Nc2ccc(Nc3ccc(C)cc3S(=O)(=O)[O-])c3c2C(=O)c2ccccc2C3=O)c(S(=O)(=O)[O-])c1.[Na+].[Na+]` [Acid Green 25], the sensitivity to microbes result in the data set on microbe contamination is listed as “fairly microbe-insensitive”.
Take `CCCCCCCCCCCCCCCCCCCCCC[n+]1ccc(C=Cc2ccc(O)cc2)cc1.[Br-]` [1-docosyl-4-(4-hydroxystyryl)-pyridinium bromide]: the color change entry with aged chicken juice (orange-yellow spots on cotton fabric) is on record as “color change to very pale yellow”; with aged chicken juice (pinkish-orange areas (dye + NaOH soln.) on cotton), “color change from pinkish-orange to very pale yellow”.

These data come from patent US20080057534A1, “Microbe-sensitive indicators and use of the same” (Kimberly-Clark Worldwide, Inc., priority 2006, published 2008).
